Among the test systems are 786-0 renal; RPMI-8226 leukemia; RXF 393 renal; OVCAR-5 ovarian; OVCAR-8 ovarian; COLO 205 colon; MCF7 breast; CAKI-1 renal; NCI-H460 lung; NCI-H23 lung; BT-549 breast; SK-MEL-2 melanoma; UO-31 renal; SF-268 CNS; MDA-N; SK-OV-3 ovarian; HCT-116 colon; A498 renal; NCI-H226 lung; HT29 colon.
What all share (assay): growth of human tumour cells (NCI), 48 h

Molecules are shown by their SMILES.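 Cultured in 96-well plates, cells were exposed to test compound for 48 hours across five concentrations. TGI marks complete inhibition of growth.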

As for `O=c1oc2ccccc2cc1-c1csc(Nc2cc(Cl)cc(Cl)c2)n1`, the TGI with 786-0 renal is 12.9 µM; in the experiment on RPMI-8226 leukemia, above 100 µM; with RXF 393 renal, 14.6 µM; in the experiment with OVCAR-5 ovarian, above 100 µM; with OVCAR-8 ovarian it was above 52 µM; in the experiment on COLO 205 colon, above 100 µM. Moreover, the TGI is 61.4 µM in the experiment with MCF7 breast; above 32.4 µM in the experiment on CAKI-1 renal; above 100 µM with NCI-H460 lung; above 56.7 µM with NCI-H23 lung; above 100 µM in the experiment on BT-549 breast; above 100 µM with SK-MEL-2 melanoma. The TGI was 7.53 µM in the experiment on UO-31 renal; above 100 µM in the experiment with SF-268 CNS; above 100 µM with MDA-N; above 49.5 µM in the experiment with SK-OV-3 ovarian; above 38.3 µM with HCT-116 colon; 65.6 µM with A498 renal. Further, the TGI in the experiment on NCI-H226 lung was above 56.1 µM; in the experiment with HT29 colon, 14.2 µM.

For `CCCC(=O)OCC1(CO)C/C(=C/CC(C(C)C)C(C)C)C(=O)O1` (stereo not drawn), the TGI with 786-0 renal, in the experiment on RXF 393 renal, with OVCAR-5 ovarian, in the experiment with OVCAR-8 ovarian, with COLO 205 colon and with MCF7 breast was above 100 µM each time. Moreover, the TGI in the experiment with CAKI-1 renal, with NCI-H460 lung, in the experiment with NCI-H23 lung, with BT-549 breast, in the experiment with SK-MEL-2 melanoma and in the experiment on UO-31 renal was above 100 µM in each case. Also, the TGI in the experiment on SF-268 CNS, with MDA-N, in the experiment with SK-OV-3 ovarian, in the experiment on HCT-116 colon, with A498 renal and in the experiment with NCI-H226 lung was above 100 µM each time. Also, in the experiment with HT29 colon, the TGI is above 100 µM.

For `CSC1=C(C#N)C(=O)N(c2ccc(Cl)cc2)C(=O)C1C#N` (stereo not drawn), the TGI with 786-0 renal, in the experiment with RPMI-8226 leukemia, in the experiment with RXF 393 renal, in the experiment on OVCAR-5 ovarian, in the experiment on COLO 205 colon and in the experiment with MCF7 breast was above 100 µM each time. Also, the TGI with CAKI-1 renal, with NCI-H460 lung, in the experiment with NCI-H23 lung, in the experiment on BT-549 breast, with SK-MEL-2 melanoma and with UO-31 renal was above 100 µM each time. Besides, the TGI in the experiment with SF-268 CNS, with MDA-N, in the experiment with SK-OV-3 ovarian, in the experiment on HCT-116 colon, in the experiment with A498 renal and in the experiment on NCI-H226 lung was above 100 µM in each case. Also, the TGI in the experiment on HT29 colon was above 100 µM.

Consider `C=CCOc1ccc(C2(c3ccc(OCC=C)cc3)C(=O)Nc3ccccc32)cc1`, for which the TGI with 786-0 renal, in the experiment with RPMI-8226 leukemia, in the experiment on RXF 393 renal, in the experiment with OVCAR-5 ovarian, with OVCAR-8 ovarian and in the experiment with COLO 205 colon was above 10 µM each time. In addition, the TGI in the experiment on MCF7 breast, in the experiment on CAKI-1 renal, with NCI-H460 lung, in the experiment on NCI-H23 lung, in the experiment with BT-549 breast and with SK-MEL-2 melanoma was above 10 µM throughout. The TGI in the experiment on SF-268 CNS, in the experiment on MDA-N, in the experiment on SK-OV-3 ovarian, in the experiment with HCT-116 colon, in the experiment with A498 renal and in the experiment with NCI-H226 lung was above 10 µM in each case. Moreover, in the experiment with HT29 colon, the TGI was above 10 µM.

In the case of `CN(C)Cc1cc(N=Nc2ccccc2Cl)ccc1O`, the TGI in the experiment on 786-0 renal was 35.4 µM; in the experiment with RPMI-8226 leukemia, 81.4 µM; with RXF 393 renal, 60.8 µM; in the experiment on OVCAR-5 ovarian, 63.2 µM; in the experiment on OVCAR-8 ovarian, 25.3 µM; in the experiment with COLO 205 colon it was 28.6 µM. The TGI with MCF7 breast came out at 33.5 µM; in the experiment with CAKI-1 renal, 56.6 µM; in the experiment with NCI-H460 lung, 18.2 µM; in the experiment with NCI-H23 lung, 83.9 µM; with BT-549 breast it was 85.4 µM; in the experiment with UO-31 renal, 36.5 µM. Also, the TGI in the experiment with SF-268 CNS was above 100 µM; in the experiment with MDA-N it was 33.4 µM; in the experiment with SK-OV-3 ovarian, above 100 µM; in the experiment on HCT-116 colon, above 100 µM; in the experiment on A498 renal, 26.1 µM; in the experiment with NCI-H226 lung, 40 µM. This compound showed a TGI with HT29 colon of 33.7 µM.

Consider `CCOC(=O)CCSS(=O)(=O)C(F)(F)F`, for which the TGI in the experiment with 786-0 renal, in the experiment on RPMI-8226 leukemia, in the experiment with RXF 393 renal, in the experiment on OVCAR-5 ovarian, in the experiment on OVCAR-8 ovarian and in the experiment on COLO 205 colon was above 100 µM in each case. Also, the TGI in the experiment with MCF7 breast, with CAKI-1 renal, in the experiment on NCI-H460 lung, with NCI-H23 lung, in the experiment with BT-549 breast and with SK-MEL-2 melanoma was above 100 µM in each case. For the same compound, the TGI with UO-31 renal, in the experiment on MDA-N, in the experiment on SK-OV-3 ovarian, with HCT-116 colon, in the experiment with A498 renal and in the experiment on NCI-H226 lung was above 100 µM throughout.

With `CCOC(=O)/C(=C\c1ccnc2ccccc12)P(=O)(OCC)OCC`, the TGI in the experiment on 786-0 renal came to 6.14 µM; in the experiment with RPMI-8226 leukemia, 5.93 µM; in the experiment with RXF 393 renal, 4.41 µM; in the experiment with OVCAR-5 ovarian, 6.78 µM; in the experiment with OVCAR-8 ovarian, 7.96 µM; in the experiment with COLO 205 colon, 4.63 µM. In addition, the TGI stood at 14.7 µM in the experiment on MCF7 breast; 7.66 µM in the experiment with CAKI-1 renal; 8.72 µM in the experiment with NCI-H460 lung; 4.22 µM in the experiment on NCI-H23 lung; 4.22 µM in the experiment with BT-549 breast; 4.49 µM in the experiment with SK-MEL-2 melanoma. Further, the TGI came to 6.3 µM in the experiment with SF-268 CNS; 6.74 µM in the experiment on MDA-N; 15.5 µM in the experiment on SK-OV-3 ovarian; 3.61 µM with HCT-116 colon; 5.98 µM with A498 renal; 31.3 µM in the experiment with NCI-H226 lung. The compound also showed a TGI in the experiment with HT29 colon of 4.62 µM.
